In patent US8815882B2, “Pyrazole aminopyrimidine derivatives as LRRK2 modulators” (Genentech, Inc., priority 2010, dated 2014):

What follows are compounds tested against T1, LRRK2 (Homo sapiens, UniProt Q5S007, G2019S) (assay: In Vitro LRRK2 Assay (LabChip 3000, fluorescently-labeled peptide substrate, ATP)). Details: Table 9; LRRK2 Ki (micromolar); read-out: LRRK2 Ki (KI).
T1 construct: purchased Invitrogen PV4882 (lot 567054A)
Assay type: biochemical
In short: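 Read-out was LabChip capillary electrophoresis, resolving phospho- from non-phospho-peptide by fluorescence intensity. The kinase reaction combined enzyme, ATP, test compound and labeled peptide (4 μM working dilution) for 2 h in darkness before stop solution. Values were reported as Ki, from a tight-binding model with Et, S and Km, or as IC50 or percent inhibition.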

T1 sequence (Q5S007 whole entry G2019S): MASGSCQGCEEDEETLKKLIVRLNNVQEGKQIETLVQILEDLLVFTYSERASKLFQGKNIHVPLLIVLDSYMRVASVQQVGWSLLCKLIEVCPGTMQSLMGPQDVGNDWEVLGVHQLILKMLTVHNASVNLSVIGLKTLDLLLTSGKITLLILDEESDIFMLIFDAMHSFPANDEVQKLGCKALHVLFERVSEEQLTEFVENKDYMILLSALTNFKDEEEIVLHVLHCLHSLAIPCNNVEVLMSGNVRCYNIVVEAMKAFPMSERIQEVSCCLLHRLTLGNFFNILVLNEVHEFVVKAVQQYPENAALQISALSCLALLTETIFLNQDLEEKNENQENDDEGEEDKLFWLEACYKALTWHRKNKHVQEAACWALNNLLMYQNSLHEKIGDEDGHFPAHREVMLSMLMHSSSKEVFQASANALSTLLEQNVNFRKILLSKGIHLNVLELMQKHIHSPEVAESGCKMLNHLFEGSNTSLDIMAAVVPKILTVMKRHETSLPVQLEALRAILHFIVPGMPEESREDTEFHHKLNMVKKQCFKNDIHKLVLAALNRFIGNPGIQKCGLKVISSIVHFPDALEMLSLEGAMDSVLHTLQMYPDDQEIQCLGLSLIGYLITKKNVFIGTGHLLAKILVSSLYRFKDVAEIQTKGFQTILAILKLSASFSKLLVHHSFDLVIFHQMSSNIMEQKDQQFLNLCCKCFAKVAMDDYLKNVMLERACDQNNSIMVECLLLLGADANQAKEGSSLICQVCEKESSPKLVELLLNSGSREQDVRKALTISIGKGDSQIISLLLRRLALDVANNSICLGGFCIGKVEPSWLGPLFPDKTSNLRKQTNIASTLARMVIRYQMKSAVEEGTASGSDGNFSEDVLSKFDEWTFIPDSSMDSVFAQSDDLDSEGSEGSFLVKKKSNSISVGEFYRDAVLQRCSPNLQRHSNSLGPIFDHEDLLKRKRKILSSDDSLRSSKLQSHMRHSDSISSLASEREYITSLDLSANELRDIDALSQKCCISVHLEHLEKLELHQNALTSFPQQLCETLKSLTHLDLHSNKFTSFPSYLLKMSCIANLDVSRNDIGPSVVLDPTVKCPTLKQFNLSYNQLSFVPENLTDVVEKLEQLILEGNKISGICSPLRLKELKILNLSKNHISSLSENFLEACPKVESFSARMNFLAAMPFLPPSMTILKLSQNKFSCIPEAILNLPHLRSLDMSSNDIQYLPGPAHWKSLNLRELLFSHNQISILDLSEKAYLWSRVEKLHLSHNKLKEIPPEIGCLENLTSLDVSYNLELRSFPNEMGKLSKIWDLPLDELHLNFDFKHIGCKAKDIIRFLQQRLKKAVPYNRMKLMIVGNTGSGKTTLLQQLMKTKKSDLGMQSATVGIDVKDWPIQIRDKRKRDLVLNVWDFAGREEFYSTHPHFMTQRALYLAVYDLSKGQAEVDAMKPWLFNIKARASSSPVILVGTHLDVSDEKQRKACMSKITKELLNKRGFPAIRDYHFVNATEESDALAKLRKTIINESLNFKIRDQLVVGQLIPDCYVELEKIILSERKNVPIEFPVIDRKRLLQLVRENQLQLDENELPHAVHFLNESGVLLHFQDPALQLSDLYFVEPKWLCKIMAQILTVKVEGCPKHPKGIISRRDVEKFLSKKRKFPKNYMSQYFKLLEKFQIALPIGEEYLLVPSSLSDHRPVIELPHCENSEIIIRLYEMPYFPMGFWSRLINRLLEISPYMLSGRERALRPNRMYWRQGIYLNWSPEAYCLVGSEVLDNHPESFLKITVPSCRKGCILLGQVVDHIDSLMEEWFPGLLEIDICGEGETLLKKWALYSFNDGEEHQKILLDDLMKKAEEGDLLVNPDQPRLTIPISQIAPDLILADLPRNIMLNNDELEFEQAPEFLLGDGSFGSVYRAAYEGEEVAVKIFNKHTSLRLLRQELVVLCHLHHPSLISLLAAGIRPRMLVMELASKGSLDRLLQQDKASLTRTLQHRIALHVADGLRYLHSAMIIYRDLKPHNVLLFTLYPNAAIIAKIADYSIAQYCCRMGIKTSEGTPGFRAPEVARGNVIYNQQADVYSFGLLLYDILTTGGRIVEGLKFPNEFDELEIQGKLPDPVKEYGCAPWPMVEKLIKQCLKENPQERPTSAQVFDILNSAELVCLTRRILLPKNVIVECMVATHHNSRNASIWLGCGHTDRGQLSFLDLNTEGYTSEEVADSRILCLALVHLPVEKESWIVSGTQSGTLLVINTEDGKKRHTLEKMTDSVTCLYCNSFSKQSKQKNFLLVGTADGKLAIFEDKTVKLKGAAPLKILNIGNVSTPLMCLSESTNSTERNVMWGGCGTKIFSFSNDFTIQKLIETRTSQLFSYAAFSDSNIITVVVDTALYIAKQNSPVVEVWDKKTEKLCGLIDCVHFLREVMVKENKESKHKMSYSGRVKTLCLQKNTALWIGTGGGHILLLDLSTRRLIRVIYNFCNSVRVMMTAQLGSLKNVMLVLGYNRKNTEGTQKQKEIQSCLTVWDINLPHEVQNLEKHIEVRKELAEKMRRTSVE

**Q.** `CNc1nc(Nc2cnn(-c3cc(F)cc(F)c3)c2C)ncc1C#N` [Example 390, 2-[1-(3,5-Difluoro-phenyl)-5-methyl-1H-pyrazol-4-ylamino]-4-methylamino-pyrimidine-5-carbonitrile] was tested. Which Ki did it give?
**A.** 241 nM

**Q.** For `CNc1nc(Nc2cn(C3COC3)nc2C)ncc1C#N` [Example 389, 4-Methylamino-2-(3-methyl-1-oxetan-3-yl-1H-pyrazol-4-ylamino)-pyrimidine-5-carbonitrile], which Ki is on record?
**A.** 37.2 nM

**Q.** Which Ki does the source give for `CNc1nc(Nc2cn(CC(F)(F)F)nc2C)ncc1C#N` [Example 359, 2-(3-methyl-1-(2,2,2-trifluoroethyl)-1H-pyrazol-4-ylamino)-4-(methylamino) pyrimidine-5-carbonitrile] here?
**A.** 53 nM

**Q.** How did the Ki turn out when `CNc1nc(Nc2cnn(C3CCOCC3)c2C)ncc1C#N` [Example 361, 2-(5-methyl-1-(tetrahydro-2H-pyran-4-yl)-1H-pyrazol-4-ylamino)-4-(methylamino) pyrimidine-5-carbonitrile] was run?
**A.** 8.7 nM

**Q.** How did the Ki turn out when `CCCn1ncc(Nc2ncc(C#N)c(NC)n2)c1C` [Example 366, 2-(5-methyl-1-propyl-1H-pyrazol-4-ylamino)-4-(methylamino) pyrimidine-5-carbonitrile] was run?
**A.** 5.4 nM

Same assay, conditions: Table 10; LRRK2 Ki (micromolar); read-out: LRRK2 Ki (KI)

**Q.** With `CNc1nc(Nc2cnn([C@H](C)C#N)c2C)ncc1C(F)(F)F` [Example 439, (R)-2-[5-Methyl-4-(4-methylamino-5-trifluoromethyl-pyrimidin-2-ylamino)-pyrazol-1-yl]-propionitrile] as the compound, how does the Ki read?
**A.** 1.6 nM

**Q.** How did the Ki turn out when `CNc1nc(Nc2cnn(C(C)(C)C#N)c2C)ncc1C(F)(F)F` [Example 401, 2-methyl-2-(5-methyl-4-(4-(methylamino)-5-(trifluoromethyl)pyrimidin-2-ylamino)-1H-pyrazol-1-yl)propanenitrile] was run?
**A.** 0.7 nM

**Q.** With `CNc1nc(Nc2cnn(CC(=O)N(C)C)c2C)ncc1C(F)(F)F` [Example 395, N,N-dimethyl-2-(5-methyl-4-(4-(methylamino)-5-(trifluoromethyl)pyrimidim-2-ylamino)-1H-pyrazol-1-yl)acetamide] as the compound, how does the Ki read?
**A.** 15 nM

**Q.** With `CNc1nc(Nc2cnn([C@@H](C)C(=O)N3CCCC3)c2C)ncc1C(F)(F)F` [Example 413, (S)-2-(5-methyl-4-(4-(methylamino)-5-(trifluoromethyl)pyrimidin-2-ylamino)-1H-pyrazol-1-yl)-1-(pyrrolidin-1-yl)propan-1-one] as the compound, how does the Ki read?
**A.** 40 nM

**Q.** `CNC(=O)Cn1ncc(Nc2ncc(C(F)(F)F)c(NC)n2)c1C` [Example 398, N-methyl-2-(5-methyl-4-(4-(methylamino)-5-(trifluoromethyl)pyrimidin-2-ylamino)-1H-pyrazol-1-yl)acetamide] was tested. Which Ki did it give?
**A.** 3 nM

Same assay, conditions: read-out: LRRK2 Ki (KI), Table 7

**Q.** `Cc1c(Nc2ncc(Cl)c(OCC(F)(F)F)n2)cnn1C` [Example 64, 5-chloro-N-(1,5-dimethyl-1H-pyrazol-4-yl)-4-(2,2,2-trifluoroethoxy) pyrimidin-2-amine] was tested. Which Ki did it give?
**A.** 58.6 nM

**Q.** `COc1nc(Nc2cc(C(C)C)nn2C)ncc1Cl` [Example 41, 5-Chloro-N-(3-isopropyl-1-methyl-1H-pyrazol-5-yl)-4-methoxy-pyrimidin-2-amine] was tested. Which Ki did it give?
**A.** 70 nM

**Q.** `COc1nc(Nc2cnn(C3CCOCC3)c2Cl)ncc1Cl` [Example 85, (5-Chloro-4-methoxy-pyrimidin-2-yl)-[5-chloro-1-(tetrahydro-pyran-4-yl)-1H-pyrazol-4-yl]-amine] was tested. Which Ki did it give?
**A.** 6.6 nM

**Q.** `COc1nc(Nc2cn(-c3ccccc3)nc2C)ncc1C(F)(F)F` [Example 77, (4-Methoxy-5-trifluoromethyl-pyrimidin-2-yl)-(3-methyl-1-phenyl-1H-pyrazol-4-yl)-amine] was tested. Which Ki did it give?
**A.** 1.6 nM

Same assay, conditions: read-out: LRRK2 Ki (KI), Table 8

**Q.** Which Ki does the source give for `CNc1nc(Nc2cn(C3CCC(OC)C3)nc2C)ncc1C(F)(F)F` (stereo not shown) [Example 193, N2-(1-(3-methoxycyclo-pentyl)-3-methyl-1H-pyrazol-4-yl)-N4-methyl-5-(trifluoromethyl) pyrimidine-2,4-diamine] here?
**A.** 19 nM

**Q.** With `CNc1nc(Nc2cn(C[C@@H](C)OC)nc2C)ncc1C(F)(F)F` [Example 270, N2-[1-((R)-2-Methoxy-propyl)-3-methyl-1H-pyrazol-4-yl]-N4-methyl-5-trifluoromethyl-pyrimidine-2,4-diamine] as the compound, how does the Ki read?
**A.** 17 nM

**Q.** With `CNc1nc(Nc2cn(C(C)(C)c3cnn(C)c3)nc2C)ncc1C(F)(F)F` [Example 340, N4-methyl-N2-(3-methyl-1-(2-(1-methyl-1H-pyrazol-4-yl)propan-2-yl)-1H-pyrazol-4-yl)-5-(trifluoromethyl) pyrimidine-2,4-diamine] as the compound, how does the Ki read?
**A.** 0.3 nM

**Q.** Which Ki does the source give for `CNc1nc(Nc2cn(C)nc2C2CCC2)ncc1C(F)(F)F` [Example 228, N2-(3-cyclobutyl-1-methyl-1H-pyrazol-4-yl)-N4-methyl-5-(trifluoromethyl) pyrimidine-2,4-diamine] here?
**A.** 3.4 nM

**Q.** For `CNc1nc(Nc2cn(CC(C)(C)C#N)nc2Cl)ncc1C(F)(F)F` [Example 326, 3-[3-Chloro-4-(4-methylamino-5-trifluoromethyl-pyrimidin-2-ylamino)-pyrazol-1-yl]-2,2-dimethyl-propionitrile], which Ki is on record?
**A.** 8.2 nM

**Q.** For `CNc1nc(Nc2cnn(C3CCOC3)c2C)ncc1C(F)(F)F` (stereo not shown) [Example 150, N4-methyl-N2-(5-methyl-1-(tetrahydrofuran-3-yl)-1H-pyrazol-4-yl)-5-(trifluoromethyl) pyrimidine-2,4-diamine], which Ki is on record?
**A.** 5.1 nM

**Q.** With `CCNc1nc(Nc2cn(CC(C)(C)O)nc2C)ncc1C(F)(F)F` [Example 297, 1-[4-(4-Ethylamino-5-trifluoromethyl-pyrimidin-2-ylamino)-3-methyl-pyrazol-1-yl]-2-methyl-propan-2-ol] as the compound, how does the Ki read?
**A.** 2.1 nM

**Q.** With `CCNc1nc(Nc2cnn(CC(C)(C)C#N)c2Cl)ncc1C(F)(F)F` [Example 318, 3-[5-Chloro-4-(4-ethylamino-5-trifluoromethyl-pyrimidin-2-ylamino)-pyrazol-1-yl]-2,2-dimethyl-propionitrile] as the compound, how does the Ki read?
**A.** 0.7 nM

**Q.** How did the Ki turn out when `COc1nc(Nc2cnn(C3CCN(CCF)CC3)c2C)ncc1Cl` [Example 292, (5-Chloro-4-methoxy-pyrimidin-2-yl)-{1-[1-(2-fluoro-ethyl)-piperidin-4-yl]-5-methyl-1H-pyrazol-4-yl}-amine] was run?
**A.** 4.2 nM

**Q.** How did the Ki turn out when `CNc1nc(Nc2cn(C3CCS(=O)(=O)CC3)nc2C)ncc1C(F)(F)F` [Example 273, N2-[1-(1,1-Dioxo-hexahydro-1$1%6&- thiopyran-4-yl)-3-methyl-1H-pyrazol-4-yl]-N4-mcthyl-5-trifluoromethyl-pyrimidine-2,4-diamine] was run?
**A.** 37 nM

**Q.** For `CNc1nc(Nc2cn(-c3ccc(S(C)(=O)=O)cc3)nc2C)ncc1C(F)(F)F` [Example 124, N4-methyl-N2-(3-methyl-1-(4-(methylsulfonyl)phenyl)-1H-pyrazol-4-yl)-5-(trifluoromethyl) pyrimidine-2,4-diamine], which Ki is on record?
**A.** 0.3 nM

**Q.** How did the Ki turn out when `CCNc1nc(Nc2ccnn2C)ncc1C(F)(F)F` [Example 176, N4-ethyl-N2-(1-methyl-1H-pyrazol-5-yl)-5-(trifluoromethyl) pyrimidine-2,4-diamine] was run?
**A.** 11 nM

**Q.** For `CNc1nc(Nc2cn(C3CCN(C)CC3F)nc2C)ncc1C(F)(F)F` (stereo not shown) [Example 222, N2-(1-(3-fluoro-1-methylpiperidin-4-yl)-3-methyl-1H-pyrazol-4-yl)-N4-methyl-5-(trifluoromethyl) pyrimidine-2,4-diamine], which Ki is on record?
**A.** 1.6 nM

**Q.** With `CCNc1nc(Nc2cn(C3CCN(CC4OCCO4)C3)nc2C)ncc1C(F)(F)F` (stereo not shown) [Example 322, N2-[1-(1-[1,3]Dioxolan-2-ylmethyl-pyrrolidin-3-yl)-3-methyl-1H-pyrazol-4-yl]-N4-ethyl-5-trifluoromethyl-pyrimidine-2,4-diamine] as the compound, how does the Ki read?
**A.** 4.9 nM

**Q.** For `CNc1nc(Nc2cnn(C)c2N(C)C)ncc1C(F)(F)F` [Example 247, N2-(5-(dimethylamino)-1-methyl-1H-pyrazol-4-yl)-N4-methyl-5-(trifluoromethyl) pyrimidine-2,4-diamine], which Ki is on record?
**A.** 77.9 nM

**Q.** How did the Ki turn out when `CCS(=O)(=O)n1cc(Nc2ncc(C(F)(F)F)c(NC)n2)c(C)n1` [Example 249, N^2-(1-(ethylsulfonyl)-3-methyl-1H-pyrazol-4-yl)-N4-methyl-5-(trifluoromethyl) pyrimidine-2,4-diamine] was run?
**A.** 3.3 nM

**Q.** Which Ki does the source give for `CCNc1nc(Nc2cnn(S(=O)(=O)CC)c2C)ncc1C(F)(F)F` [Example 244, N4-ethyl-N2-(1-(ethylsulfonyl)-5-methyl-1H-pyrazol-4-yl)-5-(trifluoromethyl) pyrimidine-2,4-diamine] here?
**A.** 4.7 nM

**Q.** With `CCNc1nc(Nc2cnn(C3CCN(C(=O)C(C)C)CC3)c2C)ncc1C(F)(F)F` [Example 181, l-(4-(4-(4-(ethylamino)-5-(trifluoromethyl)pyrimidin-2-ylamino)-5-methyl-1H-pyrazol-1-yl)piperidin-1-yl)-2-methylpropan-1-one] as the compound, how does the Ki read?
**A.** 0.82 nM

**Q.** For `CCNc1nc(Nc2cn(-c3ccc(C(=O)N(C)C)cc3)nc2C)ncc1C(F)(F)F` [Example 263, 4-[4-(4-Ethylamino-5-trifluoromethyl-pyrimidin-2-ylamino)-3-methyl-pyrazol-1-yl]-N,N-dimethyl-benzamide], which Ki is on record?
**A.** 1.8 nM

**Q.** With `CNc1nc(Nc2cnn(C3CC3)c2Cl)ncc1C(F)(F)F` [Example 145, N2-(5-chloro-1-cyclopropyl-1H-pyrazol-4-yl)-N4-methyl-5-(trifluoromethyl) pyrimidine-2,4-diamine] as the compound, how does the Ki read?
**A.** 1.7 nM

**Q.** How did the Ki turn out when `CNc1nc(Nc2ccnn2C)ncc1Br` [Example 99, 5-bromo-N4-methyl-N2-(1-methyl-1H-pyrazol-5-yl)pyrimidine-2,4-diamine] was run?
**A.** 5.4 nM

Same assay, conditions: read-out: LRRK2 Ki given in the example

**Q.** For `CNc1nc(Nc2cn(C(C)(C)C#N)nc2C)ncc1C(F)(F)F` [Example 394, 2-methyl-2-(3-methyl-4-(4-(methylamino)-5-(trifluoromethyl)pyrimidin-2-ylamino)-1H-pyrazol-1-yl)propanenitrile], which Ki is on record?
**A.** 0.5 nM

**Q.** Which Ki does the source give for `CNc1nc(Nc2cnn(C)c2C)ncc1C#N` [Example 349, 2-(1,5-Dimethyl-1H-pyrazol-4-ylamino)-4-(methylamino)pyrimidine-5-carbonitrile] here?
**A.** 25 nM
